Test [1] addresses T1, human cytoplasmic domain of IGF-1R (Homo sapiens, UniProt P08069).
T1 construct: The human cytoplasmic domain of IGF-1R was cloned by fusion with glutathione S-transferase (GST); made in house; host or cells: SF21 insect cells (baculovirus, pFastBac-GST)
In words: Kinase IGF-1R test: inhibition of autophosphorylation of the enzyme (HTRF). In kind it is biochemical. Conditions: ATP 120 μM. On the procedure:
A) Experimental Protocol for the Kinase IGF-1R Test:
The inhibitory activity of the compounds on IGF1R is determined by measuring the inhibition of autophosphorylation of the enzyme using a time-resolved fluorescence test (HTRF). The human cytoplasmic domain of IGF-1R was cloned by fusion with glutathione S-transferase (GST) in the baculovirus expression vector pFastBac-GST. The protein is expressed in the SF21 cells and purified to about 80% homogeneity. For the enzymatic test, the test compound at 10 mM dissolved in DMSO is diluted in ⅓ steps in a 50 mM Hepes, pH 7.5, 5 mM MnCl2, 50 mM NaCl, 3% Glycerol, 0.025% Tween 20 buffer. To measure the inhibition, the successive dilutions of the compound are preincubated for 30 minutes and 90 minutes in the presence of 5 nM of enzyme, the final DMSO concentration not exceeding 1%. The enzymatic reaction is initiated to have a final ATP concentration of 120 μM, and is stopped after 5 minutes by addition of 100 mM Hepes, pH 7.0 buffer containing 0.4 M of potassium fluoride, 133 mM EDTA, 0.1% BSA, the XL665-labelled antibody anti-GST and the anti-phosphotyrosine antibody conjugated to europium cryptate Eu—K (Cis-Bio Int.). The characteristics of the two fluorophores, XL-665 and Eu—K, are available in G. Mathis et al., Anticancer Research, 1997, 17, pages 3011-3014. The energy transfer between the excited europium cryptate to the acceptor XL665 is proportional to the degree of autophosphorylation of IGF-1R. The specific long-lasting signal of XL-665 is measured in a GENios Pro TECAN plate counter. The inhibition of autophosphorylation of IGF-1R at time 30 minutes and 90 minutes with the test compounds of the invention is calculated relative to a 1% in DMSO control, whose activity is measured in the absence of compound. The curve representing the percentage of inhibition as a function of the log of the concentration is established to determine the concentration corresponding to 50% inhibition (IC50),
(TR-FRET usually uses a lanthanide donor and a delayed reading to cut background.)

For the next test, the system named is MEF-IGF1R cells. In words: Proliferation/viability of MEF-IGF1R (Thymidine [14C] incorporation). The test is classed as cell-based. The settings on record: rhIGF1 100 ng/mL, incubation 72 hours, read-out: Test C IC50. How it is done:
C) Measurement of the Proliferation/Viability of MEF-IGF1R
Cell culture: the MEF-IGF1R cells (stable clone of cells transfected with the receptor hIGF-1R) are cultured at 37° C. under 5% CO2 in EMEM medium containing 10% FCS.
Test procedure: the cells are seeded at 5000 cells per well in 96-well Cytostar plates (Amersham) with 0.2 mL of EMEM culture medium at 37° C. for 18 hours. The cells are then washed twice with EMEM medium and left to culture without serum for 24 hours. The compounds are then added at various concentrations in the presence of rhIGF1 (100 ng/mL) and 0.1 μCi of Thymidine [^14C] (specific activity ˜50 mCi/mmol) to give 0.2 mL of volume per well. After incubation for 72 hours in the presence of the compound, at 37° C. under 5% CO2, the incorporation of Thymidine [^14C] is measured by counting the radioactivity on a Microbeta trilux counter (Perkin-Elmer). The IC50 is determined from 10 increasing concentrations of the compound.
(§1) (i) The tests are performed in duplicate and the mean of the two tests is calculated.
(§2) (ii) The value of the signal of the maximum response is calculated from the positive control: cells stimulated with IGF1 without compound.
(§3) (iii) Value of the signal of the minimum response is calculated from the negative control: cells not stimulated with IGF1 without compound.
(§4) (iv) By using these values as maximum (100%) and minimum (0%), respectively, the data were normalized so as to give a percentage of the maximum response.
(§5) (v) A curve of dose response is plotted and the IC50 (the concentration of which the compound induces a 50% decrease in the signal) of the compound is calculated by non-linear regression analysis.

For another test, the target named is IGF-1R in MCF7 cells (Homo sapiens, UniProt P08069). In words: Autophosphorylation of IGF-1R in MCF7 cells after stimulation with IGF-1 (ELISA). The test is classed as cell-based. Set-up: endogenous in cells; host or cells: MCF-7 cells. The settings on record: MCF-7 cells, compound added one hour before stimulation with IGF1; read-out: Test B IC50. How it is done:
B) Measurement of the Autophosphorylation of IGF-1R in MCF7 Cells after Stimulation with IGF-1
Cell Culturing and Execution of the Test:
The autophosphorylation of IGF1R in the IGF1-induced cells is evaluated by means of an ELISA technique (Enzyme Linked ImmunoSorbent Assay). The MCF-7 are seeded at 60 000 cells per well in 6-well plates and incubated at 37° C., 5% CO2 in medium containing 10% serum. After one night in 10% serum, the cells are deprived of serum for 24 hours. The compounds are added to the medium one hour before stimulation with IGF1. After 10 minutes of stimulation with IGF1, the cells are lysed with a buffer (Hepes 50 mM pH 7.6, Triton X100 1%, orthovanadate 2 mM, protease inhibitor cocktail). The cell lysates are incubated on a 96-well plate precoated with an anti-IGF1R antibody, followed by incubation with an anti-phosphotyrosine antibody coupled to the enzyme peroxidase. The level of peroxidase activity (measured by OD with a luminescent substrate) reflects the phosphorylation status of the receptor.
as §1, §2, §3, §4, §5
On the technique in general: An ELISA detects its analyte on a solid surface through an enzyme-linked reagent.

Where [2] appears, read: preincubation 30 minutes with 5 nM enzyme, read-out: Test A 30′ IC50.
The mark [3] stands for this setting: preincubation 90 minutes with 5 nM enzyme, read-out: Test A 90′ IC50.

Our source for the IC50 values is US20090082329A1 (AVENTIS PHARMA S.A., priority 2006, published 2009).

In general, pIC50 refers to −log10 of the IC50, conventionally taken in molar units.

pIC50: −log10 of the molar value. Read-outs that look alike come from different tables or passages of the source. Where only a bound is given, the exact number is not on record here.

Sequence of IGF-1R in MCF7 cells (P08069 31-1367): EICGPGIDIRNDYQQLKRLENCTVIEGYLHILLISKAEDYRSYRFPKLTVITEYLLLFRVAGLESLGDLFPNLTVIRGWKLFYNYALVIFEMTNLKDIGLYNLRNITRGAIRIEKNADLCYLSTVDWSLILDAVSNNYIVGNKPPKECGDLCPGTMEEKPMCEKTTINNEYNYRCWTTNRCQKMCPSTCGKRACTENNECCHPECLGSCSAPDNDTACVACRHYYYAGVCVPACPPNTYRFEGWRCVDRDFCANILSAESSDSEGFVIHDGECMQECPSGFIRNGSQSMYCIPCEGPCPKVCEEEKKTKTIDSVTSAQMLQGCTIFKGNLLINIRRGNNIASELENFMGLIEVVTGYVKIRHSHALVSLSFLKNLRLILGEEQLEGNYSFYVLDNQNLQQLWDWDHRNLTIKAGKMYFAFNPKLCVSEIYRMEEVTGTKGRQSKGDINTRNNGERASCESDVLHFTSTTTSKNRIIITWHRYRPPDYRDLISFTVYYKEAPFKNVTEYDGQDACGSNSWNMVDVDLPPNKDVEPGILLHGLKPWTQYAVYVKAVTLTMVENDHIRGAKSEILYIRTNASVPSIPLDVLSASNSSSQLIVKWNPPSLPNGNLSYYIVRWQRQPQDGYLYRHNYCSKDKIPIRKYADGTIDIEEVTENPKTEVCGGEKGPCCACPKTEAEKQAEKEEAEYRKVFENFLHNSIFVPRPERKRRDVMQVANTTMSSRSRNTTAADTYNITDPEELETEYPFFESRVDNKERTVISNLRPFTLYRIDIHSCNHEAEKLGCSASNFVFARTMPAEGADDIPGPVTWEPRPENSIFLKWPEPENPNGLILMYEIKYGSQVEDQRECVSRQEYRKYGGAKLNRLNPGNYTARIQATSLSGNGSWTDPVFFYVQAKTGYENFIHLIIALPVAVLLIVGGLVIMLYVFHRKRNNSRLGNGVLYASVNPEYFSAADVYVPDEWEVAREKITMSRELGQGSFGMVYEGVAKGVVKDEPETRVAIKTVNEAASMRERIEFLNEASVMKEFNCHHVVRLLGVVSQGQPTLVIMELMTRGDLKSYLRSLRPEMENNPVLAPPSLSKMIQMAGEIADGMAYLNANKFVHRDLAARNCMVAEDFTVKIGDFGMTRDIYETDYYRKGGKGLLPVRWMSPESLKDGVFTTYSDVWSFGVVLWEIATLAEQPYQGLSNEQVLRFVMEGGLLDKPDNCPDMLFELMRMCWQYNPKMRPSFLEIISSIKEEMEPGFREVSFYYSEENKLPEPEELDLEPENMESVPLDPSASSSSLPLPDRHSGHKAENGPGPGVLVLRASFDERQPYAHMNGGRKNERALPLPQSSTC
T1 sequence (P08069 960-1367 limits assumed): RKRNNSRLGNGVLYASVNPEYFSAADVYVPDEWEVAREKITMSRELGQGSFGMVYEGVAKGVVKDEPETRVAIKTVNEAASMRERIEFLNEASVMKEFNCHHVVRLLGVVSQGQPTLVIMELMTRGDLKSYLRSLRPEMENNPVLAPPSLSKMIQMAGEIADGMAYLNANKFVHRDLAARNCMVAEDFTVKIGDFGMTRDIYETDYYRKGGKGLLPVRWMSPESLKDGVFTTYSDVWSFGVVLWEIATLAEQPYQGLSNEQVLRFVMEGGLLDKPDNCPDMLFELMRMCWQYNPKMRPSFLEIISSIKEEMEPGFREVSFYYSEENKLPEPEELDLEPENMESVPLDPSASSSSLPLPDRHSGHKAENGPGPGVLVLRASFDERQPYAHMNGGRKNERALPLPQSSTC

For the compound “1-{4-[(5,5-dimethyl-2,4-dioxo-3-{4-[(trifluoro-methyl)thio]phenyl}imidazolidin-1-yl)methyl]pyridin-2-yl}-3-(2-morpholin-4-ylethyl)urea [Example 33]”, the pIC50 in test [1] (setting [2]) was 7.00 to 8.00; in test [1] (setting [3]) it was 7.00 to 8.00; in the test on MEF-IGF1R cells, under 7.00.

Take “1-{4-[(5,5-dimethyl-2,4-dioxo-3-{4-[(trifluoro-methyl)thio]phenyl}imidazolidin-1-yl)methyl]pyridin-2-yl}-3-[2-(4-methylpiperazin-1-yl)ethyl]urea [Example 32]”: the negative logarithm of the IC50 (pIC50) in test [1] (setting [2]) is 7.00 to 8.00; in test [1] (setting [3]) it was 7.00 to 8.00; in the test on MEF-IGF1R cells it was under 7.00.

Turning to `CC1(C)C(=O)N(c2ccc(SC(F)(F)F)cc2)C(=O)N1Cc1ccnc(NC(=O)NC2CC(CO)C2)c1` (mixture of isomers) [Example 40B Stage a), 1-{4-[(5,5-dimethyl-2,4-dioxo-3-{4-[(trifluoro-methyl)thio]phenyl}imidazolidin-1-yl)methyl]pyridin-2-yl}-3-[3-(hydroxymethyl)cyclobutyl]urea], the pIC50 was 7.00 to 8.00 in test [1] (setting [2]) and over 8.00 in test [1] (setting [3]).

Take `CC1(C)C(=O)N(c2ccc(SC(F)(F)F)cc2)C(=O)N1Cc1ccnc(Nc2cc(Cl)ccc2Cl)c1` [Example 1, 1-({2-[(2,5-dichlorophenyl)amino]pyridin-4-yl}-methyl)-5,5-dimethyl-3-{4-[(trifluoromethyl)thio]phenyl}imidazolidine-2,4-dione]: the negative-log IC50 (pIC50) in test [1] (setting [2]) is under 7.00; in test [1] (setting [3]), under 7.00; in the test with MEF-IGF1R cells, 7.00 to 8.00; on IGF-1R in MCF7 cells, under 7.00.

Take `CC1(C)C(=O)N(c2ccc(SC(F)(F)F)cc2)C(=O)N1Cc1ccnc(NC(=O)N2CCCCC2)c1` [Example 2, N-{4-[(5,5-dimethyl-2,4-dioxo-3-{4-[(trifluoro-methyl)thio]phenyl}imidazolidin-1-yl)methyl]pyridin-2-yl}piperidine-1-carboxamide]: the pIC50 is 7.00 to 8.00 in test [1] (setting [2]), 7.00 to 8.00 in test [1] (setting [3]), 7.00 to 8.00 with MEF-IGF1R cells and over 8.00 on IGF-1R in MCF7 cells.

In the case of `CC1(C)C(=O)N(c2ccc(SC(F)(F)F)cc2)C(=O)N1Cc1ccnc(NC(=O)c2ccc(Cl)c(Cl)c2)c1` [Example 3, 3,4-dichloro-N-{4-[(5,5-dimethyl-2,4-dioxo-3-{4-[(trifluoromethyl)thio]phenyl}imidazolidin-1-yl)methyl]pyridin-2-yl}benzamide], the pIC50 in test [1] (setting [2]) was under 7.00; in test [1] (setting [3]) it was under 7.00; with MEF-IGF1R cells, 7.00 to 8.00; on IGF-1R in MCF7 cells, under 7.00.

Consider `CNC(=O)Nc1cc(CN2C(=O)N(c3ccc(S(=O)(=O)C(F)(F)F)cc3)C(=O)C2(C)C)ccn1` [Example 4, 1-{4-[(5,5-dimethyl-2,4-dioxo-3-{4-[(trifluoro-methyl)sulfonyl]phenyl}imidazolidin-1-yl)methyl]pyridin-2-yl}-3-methylurea], for which the pIC50 in test [1] (setting [2]) is under 7.00; in test [1] (setting [3]), 7.00 to 8.00; in the test on MEF-IGF1R cells, 7.00 to 8.00; at IGF-1R in MCF7 cells, over 8.00.

Regarding `CN(C)C(=O)Nc1nccc(CN2C(=O)N(c3ccc(SC(F)(F)F)cc3)C(=O)C2(C)C)n1` [Example 10, 3-{4-[(5,5-dimethyl-2,4-dioxo-3-{4-[(trifluoro-methyl)thio]phenyl}imidazolidin-1-yl)methyl]pyrimidin-2-yl}-1,1-dimethylurea], the pIC50 (in test [1] (setting [2]); in test [1] (setting [3]); in the test on MEF-IGF1R cells) was under 7.00 in each case.

For `CN(C)C(=O)Nc1nccc(CN2C(=O)N(c3ccc(S(=O)(=O)C(F)(F)F)cc3)C(=O)C2(C)C)n1` [Example 12, 3-{4-[(5,5-dimethyl-2,4-dioxo-3-{4-[(trifluoro-methyl)sulfonyl]phenyl}imidazolidin-1-yl)methyl]pyrimidin-2-yl}-1,1-dimethylurea], the pIC50 (in test [1] (setting [2]); in test [1] (setting [3]); in the test on MEF-IGF1R cells) was under 7.00 each time.

Regarding `CC1(C)C(=O)N(c2ccc(SC(F)(F)F)cc2)C(=O)N1Cc1ccnc(Nc2cncc(F)c2)c1` [Example 17, 1-({2-[(5-fluoropyridin-3-yl)amino]pyridin-4-yl}-methyl)-5,5-dimethyl-3-{4-[(trifluoromethyl)thio]phenyl}imidazolidine-2,4-dione], the pIC50 was under 7.00 in test [1] (setting [2]), 7.00 to 8.00 in test [1] (setting [3]) and under 7.00 in the test on MEF-IGF1R cells.

As to `CC1(C)C(=O)N(c2ccc(SC(F)(F)F)cc2)C(=O)N1Cc1ccnc(NC(=O)NC2CCCCC2)c1` [Example 25, 1-cyclohexyl-3-{4-[(5,5-dimethyl-2,4-dioxo-3-{4-[(trifluoromethyl)thio]phenyl}imidazolidin-1-yl)methyl]pyridin-2-yl}urea], the negative logarithm of the IC50 (pIC50) in test [1] (setting [2]) was under 7.00; in test [1] (setting [3]) it was 7.00 to 8.00; in the test on MEF-IGF1R cells, under 7.00.

Turning to `CC1(C)C(=O)N(c2ccc(SC(F)(F)F)cc2)C(=O)N1Cc1ccnc(NC(=O)NCCN2CCCCC2)c1` [Example 31, 1-{4-[(5,5-dimethyl-2,4-dioxo-3-{4-[(trifluoro-methyl)thio]phenyl}imidazolidin-1-yl)methyl]pyridin-2-yl}-3-(2-piperidin-1-ylethyl)urea], the pIC50 in test [1] (setting [2]) is under 7.00; in test [1] (setting [3]) it was 7.00 to 8.00; in the test with MEF-IGF1R cells, under 7.00.

`CCCCNC(=O)Nc1cc(CN2C(=O)N(c3ccc(SC(F)(F)F)cc3)C(=O)C2(C)C)ccn1` [Example 37, 1-butyl-3-{4-[(5,5-dimethyl-2,4-dioxo-3-{4-[(tri-fluoromethyl)thio]phenyl}imidazolidin-1-yl)methyl]pyridin-2-yl}urea]: the pIC50 was under 7.00 in test [1] (setting [2]), 7.00 to 8.00 in test [1] (setting [3]) and 7.00 to 8.00 in the test on MEF-IGF1R cells.

Turning to `CN(C)CCCNC(=O)Nc1cc(CN2C(=O)N(c3ccc(SC(F)(F)F)cc3)C(=O)C2(C)C)ccn1` [Example 38, 1-[3-(dimethylamino)propyl]-3-{4-[(5,5-dimethyl-2,4-dioxo-3-{4-[(trifluoromethyl)thio]phenyl}imidazolidin-1-yl)methyl]pyridin-2-yl}urea], the negative logarithm of the IC50 (pIC50) was 7.00 to 8.00 in test [1] (setting [2]), 7.00 to 8.00 in test [1] (setting [3]) and under 7.00 in the test on MEF-IGF1R cells.

`CN(C)CCCCNC(=O)Nc1cc(CN2C(=O)N(c3ccc(SC(F)(F)F)cc3)C(=O)C2(C)C)ccn1` [Example 40, 1-[4-(dimethylamino)butyl]-3-{4-[(5,5-dimethyl-2,4-dioxo-3-{4-[(trifluoromethyl)thio]phenyl}imidazolidin-1-yl)-methyl]pyridin-2-yl}urea]: the figures for the pIC50 (in test [1] (setting [2]); in test [1] (setting [3]); in the test on MEF-IGF1R cells) were 7.00 to 8.00, over 8.00 and under 7.00, respectively.
